Conditions: magnetic stirrer, Tween 80 as wetting agent (FIG. 11)
Description: The dissolution behavior of NaCl in water was studied by measuring conductivity as a function of time while stirring at a constant rate using a magnetic stirrer. To ensure complete wetting, Tween 80 was used as a wetting agent.

Sodium chloride [Uncoated]
conductivity profile (dissolution in water): instantaneous conductivity profile
